According to PubChem BioAssay AID256 (DTP/NCI, 2004):
Where “and” joins values, the source holds several entries; their conditions need not be identical. Equal entries are not always repeated. Inconclusive results and toxic doses are left out. How the source made its calls: active means survival T/C of 150% or more; inactive means T/C below 125% in these data.

Test system: CD2F1 mice, L1210 leukemia ip, survival T/C
Test: NCI In Vivo Anticancer Drug Screen. Data for tumor model L1210 Leukemia (intraperitoneal) in CD2F1 (CDF1) mice
Conditions: higher = longer survival
How it was run: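 Mice carrying a transplanted tumor received test compound or vehicle alone. The value is the measurement in the treated group divided by that in the vehicle-treated control group.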

[1] = endpoint: mean survival time, dose: 100.0 mg/kg/injection, schedule: Q01DX001 (ip), vehicle: saline
[2] = endpoint: mean survival time, dose: 200.0 mg/kg/injection, schedule: Q01DX001 (ip), vehicle: saline
[3] = endpoint: mean survival time, dose: 12.5 mg/kg/injection, schedule: Q01DX009 (ip), vehicle: saline with Tween-80
[4] = endpoint: mean survival time, dose: 25.0 mg/kg/injection, schedule: Q01DX009 (ip), vehicle: saline with Tween-80
[5] = endpoint: mean survival time, dose: 50.0 mg/kg/injection, schedule: Q01DX009 (ip), vehicle: saline with Tween-80
[6] = endpoint: mean survival time, dose: 100.0 mg/kg/injection, schedule: Q01DX009 (ip), vehicle: saline with Tween-80
[7] = endpoint: mean survival time, dose: 100.0 mg/kg/injection, schedule: Q04DX003 (ip), vehicle: saline with Tween-80
[8] = endpoint: mean survival time, dose: 200.0 mg/kg/injection, schedule: Q01DX009 (ip), vehicle: saline with Tween-80
[9] = endpoint: mean survival time, dose: 200.0 mg/kg/injection, schedule: Q04DX003 (ip), vehicle: saline with Tween-80
[10] = endpoint: mean survival time, dose: 25.0 mg/kg/injection, schedule: Q01DX009 (ip), vehicle: saline
[11] = endpoint: mean survival time, dose: 50.0 mg/kg/injection, schedule: Q01DX009 (ip), vehicle: saline

Measured: T/C

CC(=O)OCC1OC(OC(C)=O)C(NC(=O)Nc2cccc(N)c2)C(OC(C)=O)C1OC(C)=O (centres undefined)
inactive: endpoint: mean survival time, dose: 5.0 mg/kg/injection, schedule: Q04DX003 (ip), vehicle: water 102 % of control | endpoint: mean survival time, dose: 10.0 mg/kg/injection, schedule: Q04DX003 (ip), vehicle: water 96 % of control | endpoint: mean survival time, dose: 20.0 mg/kg/injection, schedule: Q04DX003 (ip), vehicle: water 96 % of control | endpoint: mean survival time, dose: 40.0 mg/kg/injection, schedule: Q04DX003 (ip), vehicle: water 96 % of control | endpoint: mean survival time, dose: 80.0 mg/kg/injection, schedule: Q04DX003 (ip), vehicle: water 98 % of control

c1cnc(N2CC2)nn1
inactive: [1] 105 % of control | [2] 113 % of control

O=[N+]([O-])c1ccc(/C=N/O)s1
inactive: [3] 106 % of control | [4] 98 % of control

CCCCCCCC(=O)[O][Hg][CH2]C1COC([CH2][Hg][O]C(=O)CCCCCCC)CO1 (centres undefined)
inactive: endpoint: mean survival time, dose: 6.25 mg/kg/injection, schedule: Q01DX009 (ip), vehicle: saline with Tween-80 106 % of control | [3] 96 % of control

O=C(O)C(O)C(O)C(O)CO.[Zn+2] (centres undefined)
inactive: endpoint: mean survival time, dose: 6.25 mg/kg/injection, schedule: Q01DX005 (ip), vehicle: saline with Tween-80 108 % of control | endpoint: mean survival time, dose: 12.5 mg/kg/injection, schedule: Q01DX005 (ip), vehicle: saline with Tween-80 108 % of control | endpoint: mean survival time, dose: 12.5 mg/kg/injection, schedule: Q04DX003 (ip), vehicle: saline 95 % of control | endpoint: mean survival time, dose: 25.0 mg/kg/injection, schedule: Q01DX005 (ip), vehicle: saline with Tween-80 103 % of control | endpoint: mean survival time, dose: 25.0 mg/kg/injection, schedule: Q04DX003 (ip), vehicle: saline 95 % of control | endpoint: mean survival time, dose: 50.0 mg/kg/injection, schedule: Q04DX003 (ip), vehicle: saline 101 % of control

CC(=O)NC(CSCc1c2ccccc2c(C)c2c1ccc1ccccc12)C(=O)O (centres undefined)
inactive: [5] 103 % of control | [6] 95 % of control | [7] 93 % of control | [8] 103 % of control | [9] 90 % of control

CCOC(=O)NNC(=O)OCC
inactive: [3] 97 % of control | endpoint: mean survival time, dose: 12.5 mg/kg/injection, schedule: Q01DX009 (ip), vehicle: saline 90 % of control | [4] 96 % of control | [10] 101 % of control | [5] 102 % of control | [11] 105 % of control

COc1cc(OC)c(NC(=O)Oc2cc(C)c(Cl)c(C)c2Cl)cc1Cl
inactive: [5] 94 % of control | [6] 94 % of control | [8] 97 % of control

CC(C)CCCCN(CCCCC(C)C)CC(O)c1cc2c(c3ccccc13)CCCC2 (centres undefined)
inactive: endpoint: mean survival time, dose: 100.0 mg/kg/injection, schedule: Q01DX001 (ip), vehicle: saline with Tween-80 94 % of control | endpoint: mean survival time, dose: 200.0 mg/kg/injection, schedule: Q01DX001 (ip), vehicle: saline with Tween-80 97 % of control | endpoint: mean survival time, dose: 400.0 mg/kg/injection, schedule: Q01DX001 (ip), vehicle: saline with Tween-80 102 % of control

OC1CC2CCC(C1)N2CCCN1c2ccccc2Sc2ccc(Cl)cc21 (centres undefined)
inactive: endpoint: mean survival time, dose: 7.5 mg/kg/injection, schedule: Q01DX009 (ip), vehicle: saline 91 % of control | endpoint: mean survival time, dose: 15.0 mg/kg/injection, schedule: Q01DX009 (ip), vehicle: saline 98 % of control | endpoint: mean survival time, dose: 18.0 mg/kg/injection, schedule: Q04DX003 (ip), vehicle: saline with Tween-80 99 % of control | endpoint: mean survival time, dose: 27.0 mg/kg/injection, schedule: Q04DX003 (ip), vehicle: saline with Tween-80 94 % of control | endpoint: mean survival time, dose: 30.0 mg/kg/injection, schedule: Q01DX009 (ip), vehicle: saline 109 % of control | endpoint: mean survival time, dose: 40.0 mg/kg/injection, schedule: Q04DX003 (ip), vehicle: saline with Tween-80 103 % of control | endpoint: mean survival time, dose: 60.0 mg/kg/injection, schedule: Q04DX003 (ip), vehicle: saline with Tween-80 123 % of control

COC(=O)C1c2ccccc2-c2ccccc21
inactive: endpoint: mean survival time, dose: 50.0 mg/kg/injection, schedule: Q04DX003 (ip), vehicle: saline with Tween-80 95 % of control | [7] 103 % of control | [9] 100 % of control

CN(C)NCc1ccccc1
inactive: [10] 102 % of control | [11] 102 % of control | endpoint: mean survival time, dose: 100.0 mg/kg/injection, schedule: Q01DX009 (ip), vehicle: saline 94 % of control and 107 % of control

O=[N+]([O-])c1ccc(NN=C2c3ccccc3Cc3ccccc32)c([N+](=O)[O-])c1
inactive: endpoint: mean survival time, dose: 25.0 mg/kg/injection, schedule: Q04DX002 (ip), vehicle: saline with Tween-80 98 % of control | endpoint: mean survival time, dose: 50.0 mg/kg/injection, schedule: Q04DX002 (ip), vehicle: saline with Tween-80 91 % of control | endpoint: mean survival time, dose: 100.0 mg/kg/injection, schedule: Q04DX002 (ip), vehicle: saline with Tween-80 87 % of control

CCOC(=O)Nc1cc2c(c(N)n1)N=C(CN(C)c1ccccc1)CN2
inactive: endpoint: mean survival time, dose: 6.25 mg/kg/injection, schedule: Q01DX009 (ip), vehicle: Klucel (hydroxypropylcellulose) (HPC) 110 % of control | endpoint: mean survival time, dose: 12.5 mg/kg/injection, schedule: Q01DX009 (ip), vehicle: Klucel (hydroxypropylcellulose) (HPC) 87 % of control

CCOc1ccc2nc([NH-])sc2c1.CCOc1ccc2nc([NH-])sc2c1.[Cl][Pt+2][Cl]
inactive: endpoint: mean survival time, dose: 3.13 mg/kg/injection, schedule: Q04DX003 (ip), vehicle: distilled water + Tween-80 96 % of control | endpoint: mean survival time, dose: 6.25 mg/kg/injection, schedule: Q04DX003 (ip), vehicle: distilled water + Tween-80 96 % of control | endpoint: mean survival time, dose: 12.5 mg/kg/injection, schedule: Q04DX003 (ip), vehicle: distilled water + Tween-80 96 % of control | endpoint: mean survival time, dose: 25.0 mg/kg/injection, schedule: Q04DX003 (ip), vehicle: distilled water + Tween-80 95 % of control | endpoint: mean survival time, dose: 50.0 mg/kg/injection, schedule: Q04DX003 (ip), vehicle: distilled water + Tween-80 98 % of control | endpoint: mean survival time, dose: 100.0 mg/kg/injection, schedule: Q04DX003 (ip), vehicle: distilled water + Tween-80 101 % of control | endpoint: mean survival time, dose: 200.0 mg/kg/injection, schedule: Q04DX003 (ip), vehicle: distilled water + Tween-80 96 % of control

c1cc2c(cc1CNC1=NCCO1)OCO2
inactive: [7] 98 % of control | [9] 105 % of control | endpoint: mean survival time, dose: 400.0 mg/kg/injection, schedule: Q04DX003 (ip), vehicle: saline with Tween-80 98 % of control

COC1OC(OC2OC=C3C(=O)OC4CC(C)C2C34)C(O)C(O)C1O (centres undefined)
inactive: endpoint: median survival time, dose: 4.0 mg/kg/injection, schedule: Q01DX005 (ip), vehicle: Klucel (hydroxypropylcellulose) (HPC) 104 % of control | endpoint: median survival time, dose: 8.0 mg/kg/injection, schedule: Q01DX005 (ip), vehicle: Klucel (hydroxypropylcellulose) (HPC) 101 % of control | endpoint: median survival time, dose: 16.0 mg/kg/injection, schedule: Q01DX005 (ip), vehicle: Klucel (hydroxypropylcellulose) (HPC) 104 % of control | endpoint: median survival time, dose: 32.0 mg/kg/injection, schedule: Q01DX005 (ip), vehicle: Klucel (hydroxypropylcellulose) (HPC) 109 % of control

NC1C(O)C(O)C(O)C(O)C1O (centres undefined)
inactive: [1] 98 % of control | [2] 98 % of control | endpoint: mean survival time, dose: 400.0 mg/kg/injection, schedule: Q01DX001 (ip), vehicle: saline 98 % of control
